According to patent US7250413B2, “C-25 carbamate rifamycin derivatives with activity against drug-resistant microbes” (Cumbre Pharmaceuticals Inc., priority 2004, dated 2007):
In brackets after ≈: the same amount, converted by molar mass.

Legend:
Experiment in all cases: MIC, microbroth dilution
Type in all cases: cell-based
[1] = test system: Enterococcus faecalis ATCC29212; conditions: rifS, BHI Broth, 37° C., read-out: MIC
Experimental: (§1) Representative compounds were assayed for antimicrobial activity as follows: Minimum Inhibitory Concentrations (“MICs”) were determined by the microbroth dilution method as per NCCLS guidelines (National Committee for Clinical Laboratory Standards, 2000), except that all growth incubations were conducted at 37° C. Bacterial cultures were tested in the following bacteriological media: S. aureus, S. epidermidis, and E. coli in Cation-Adjusted Mueller-Hinton Broth, S. pneumoniae in THY Broth supplemented with 1 mg/mL catalase under 5% CO2 atmosphere, S. pyogenes in THY Broth, E. faecalis in BHI Broth, H. influenzae in BHI Broth supplemented with 0.75 μL of 1 mg/mL NAD and 150 μL of 1 mg/ml hematin per 5 mL, and M smegmatis in Middlebrook Broth plus ADC Enrichment.

[2] = test system: Staphylococcus aureus ATCC29213; conditions: rifS, Cation-Adjusted Mueller-Hinton Broth, 37° C., read-out: MIC
Experimental: as §1

[3] = test system: Mycobacterium smegmatis ATCC700084; conditions: Mycolicibacterium smegmatis, ATCC700084; rifS; Middlebrook Broth plus ADC Enrichment, 37° C.; read-out: MIC
Experimental: as §1

MIC [1] [µg/mL] | MIC [2] [µg/mL] | MIC [3] [µg/mL] | Compound
0.25 to 62 (≈ 0.293 to 72.7 µM) | 0.002 to 1.95 (≈ 0.00234 to 2.29 µM) | 0.063 to 31 | CO[C@H]1/C=C/O[C@@]2(C)Oc3c(C)c(O)c4c(c3C2=O)C(=O)C(N2CCOCC2)=C(NC(=O)/C(C)=C\C=C\[C@H](C)[C@H](O)[C@@H](C)[C@@H](O)[C@@H](C)[C@H](OC(=O)NCCN(C)C)[C@@H]1C)C4=O [Example 30, 25-O-Desacetyl-(carbonyl-N,N-dimethylethylenediamine) 3-morpholino rifamycin S]
0.25 to 62 (≈ 0.28 to 69.4 µM) | 0.002 to 1.95 (≈ 0.00224 to 2.18 µM) | 0.063 to 31 | CO[C@H]1/C=C/O[C@@]2(C)Oc3c(C)c(O)c4c(c3C2=O)C(=O)C(N2CCOCC2)=C(NC(=O)/C(C)=C\C=C\[C@H](C)[C@H](O)[C@@H](C)[C@@H](O)[C@@H](C)[C@H](OC(=O)NCCC2CCCN2C)[C@@H]1C)C4=O (stereo partly drawn) [Example 31, 25-O-Desacetyl-(carbonyl-2-(1-methyl-pyrrolidin-2-yl)-ethylamine) 3-morpholino rifamycin S]
0.25 to 62 (≈ 0.284 to 70.5 µM) | 0.002 to 1.95 (≈ 0.00228 to 2.22 µM) | 0.063 to 31 | CO[C@H]1/C=C/O[C@@]2(C)Oc3c(C)c(O)c4c(c3C2=O)C(=O)C(N2CCOCC2)=C(NC(=O)/C(C)=C\C=C\[C@H](C)[C@H](O)[C@@H](C)[C@@H](O)[C@@H](C)[C@H](OC(=O)NCCN2CCCC2)[C@@H]1C)C4=O [Example 32, 25-O-Desacetyl-(carbonyl-2-Pyrrolidin-1-yl-ethylamine) 3-morpholino rifamycin S]
0.25 to 62 (≈ 0.262 to 64.9 µM) | 0.002 to 1.95 (≈ 0.00209 to 2.04 µM) | 0.063 to 31 | CO[C@H]1/C=C/O[C@@]2(C)Oc3c(C)c(O)c4c(c3C2=O)C(=O)C(N2CCOCC2)=C(NC(=O)/C(C)=C\C=C\[C@H](C)[C@H](O)[C@@H](C)[C@@H](O)[C@@H](C)[C@H](OC(=O)NC2CCN(Cc3ccccc3)CC2)[C@@H]1C)C4=O [Example 33, 25-O-Desacetyl-(carbonyl-1-benzyl-piperidin-4-ylamine) 3-morpholino rifamycin S]
0.25 to 62 (≈ 0.274 to 67.8 µM) | 0.002 to 1.95 (≈ 0.00219 to 2.13 µM) | 0.063 to 31 | CO[C@H]1/C=C/O[C@@]2(C)Oc3c(C)c(O)c4c(c3C2=O)C(=O)C(N2CCOCC2)=C(NC(=O)/C(C)=C\C=C\[C@H](C)[C@H](O)[C@@H](C)[C@@H](O)[C@@H](C)[C@H](OC(=O)NCCCCc2ccccc2)[C@@H]1C)C4=O [Example 34, 25-O-Desacetyl-(carbonyl-4-phenyl-butylamine) 3-morpholino rifamycin S]
0.25 to 62 (≈ 0.268 to 66.4 µM) | 0.002 to 1.95 (≈ 0.00214 to 2.09 µM) | 0.063 to 31 | CO[C@H]1/C=C/O[C@@]2(C)Oc3c(C)c(O)c4c(c3C2=O)C(=O)C(N2CCOCC2)=C(NC(=O)/C(C)=C\C=C\[C@H](C)[C@H](O)[C@@H](C)[C@@H](O)[C@@H](C)[C@H](OC(=O)N2CCC(N3CCCCC3)CC2)[C@@H]1C)C4=O [Example 35, 25-O-Desacetyl-(carbonyl-[1,4′]bipiperidinyl) 3-morpholino rifamycin S]
0.25 to 62 (≈ 0.273 to 67.8 µM) | 0.002 to 1.95 (≈ 0.00219 to 2.13 µM) | 0.063 to 31 | CO[C@H]1/C=C/O[C@@]2(C)Oc3c(C)c(O)c4c(c3C2=O)C(=O)C(N2CCOCC2)=C(NC(=O)/C(C)=C\C=C\[C@H](C)[C@H](O)[C@@H](C)[C@@H](O)[C@@H](C)[C@H](OC(=O)NCc2ccc(N(C)C)cc2)[C@@H]1C)C4=O [Example 36, 25-O-Desacetyl-(carbonyl-(4-aminomethyl-phenyl)-dimethyl-amine) 3-morpholino rifamycin S]
0.25 to 62 (≈ 0.265 to 65.7 µM) | 0.002 to 1.95 (≈ 0.00212 to 2.07 µM) | 0.063 to 31 | CO[C@H]1/C=C/O[C@@]2(C)Oc3c(C)c(O)c4c(c3C2=O)C(=O)C(N2CCOCC2)=C(NC(=O)/C(C)=C\C=C\[C@H](C)[C@H](O)[C@@H](C)[C@@H](O)[C@@H](C)[C@H](OC(=O)N(CCN(C)C)Cc2ccccc2)[C@@H]1C)C4=O [Example 37, 25-O-Desacetyl-(carbonyl-N′-benzyl-N,N-dimethyl-ethane-1,2-diamino) 3-morpholino rifamycin S]
0.25 to 62 (≈ 0.272 to 67.4 µM) | 0.002 to 1.95 (≈ 0.00217 to 2.12 µM) | 0.063 to 31 | CO[C@H]1/C=C/O[C@@]2(C)Oc3c(C)c(O)c4c(c3C2=O)C(=O)C(N2CCOCC2)=C(NC(=O)/C(C)=C\C=C\[C@H](C)[C@H](O)[C@@H](C)[C@@H](O)[C@@H](C)[C@H](OC(=O)NCCc2ccc(Cl)cc2)[C@@H]1C)C4=O [Example 38, 25-O-Desacetyl-(carbonyl-2-(4-Chloro-phenyl)-ethylamine) 3-morpholino rifamycin S]
0.25 to 62 (≈ 0.276 to 68.4 µM) | 0.002 to 1.95 (≈ 0.00221 to 2.15 µM) | 0.063 to 31 | CO[C@H]1/C=C/O[C@@]2(C)Oc3c(C)c(O)c4c(c3C2=O)C(=O)C(N2CCOCC2)=C(NC(=O)/C(C)=C\C=C\[C@H](C)[C@H](O)[C@@H](C)[C@@H](O)[C@@H](C)[C@H](OC(=O)NCc2cccc(Cl)c2)[C@@H]1C)C4=O [Example 39, 25-O-Desacetyl-(carbonyl-3-chloro-benzylamine) 3-morpholino rifamycin S]
0.25 to 62 (≈ 0.273 to 67.6 µM) | 0.002 to 1.95 (≈ 0.00218 to 2.13 µM) | 0.063 to 31 | CO[C@H]1/C=C/O[C@@]2(C)Oc3c(C)c(O)c4c(c3C2=O)C(=O)C(N2CCOCC2)=C(NC(=O)/C(C)=C\C=C\[C@H](C)[C@H](O)[C@@H](C)[C@@H](O)[C@@H](C)[C@H](OC(=O)NCc2ccc([N+](=O)[O-])cc2)[C@@H]1C)C4=O [Example 40, 25-O-Desacetyl-(carbonyl-4-nitro-benzylamine) 3-morpholino rifamycin S]
0.25 to 62 (≈ 0.271 to 67.2 µM) | 0.002 to 1.95 (≈ 0.00217 to 2.11 µM) | 0.063 to 31 | CO[C@H]1/C=C/O[C@@]2(C)Oc3c(C)c(O)c4c(c3C2=O)C(=O)C(N2CCOCC2)=C(NC(=O)/C(C)=C\C=C\[C@H](C)[C@H](O)[C@@H](C)[C@@H](O)[C@@H](C)[C@H](OC(=O)NCc2cnc3ccccc3c2)[C@@H]1C)C4=O [Example 41, 25-O-Desacetyl-(carbonyl-N-quinolin-3-yl-methylamino) 3-morpholino rifamycin S]
0.25 to 62 (≈ 0.305 to 75.6 µM) | 0.002 to 1.95 (≈ 0.00244 to 2.38 µM) | 0.063 to 31 | C#CCNC(=O)O[C@H]1[C@H](C)[C@H](O)[C@H](C)[C@@H](O)[C@@H](C)/C=C/C=C(/C)C(=O)NC2=C(N3CCOCC3)C(=O)c3c(c(O)c(C)c4c3C(=O)[C@@](C)(O/C=C/[C@H](OC)[C@H]1C)O4)C2=O [Example 43, 25-O-Desacetyl-(carbonyl-prop-2-ynylamino) 3-morpholino rifamycin S]
0.25 to 62 (≈ 0.27 to 67 µM) | 0.002 to 1.95 (≈ 0.00216 to 2.11 µM) | 0.063 to 31 | CO[C@H]1/C=C/O[C@@]2(C)Oc3c(C)c(O)c4c(c3C2=O)C(=O)C(N2CCOCC2)=C(NC(=O)/C(C)=C\C=C\[C@H](C)[C@H](O)[C@@H](C)[C@@H](O)[C@@H](C)[C@H](OC(=O)NCC#Cc2cccc(CO)c2)[C@@H]1C)C4=O [Example 44, 25-O-Desacetyl-(carbonyl-[3-(3-amino-prop-1-ynyl)-phenyl]-methanol) 3-morpholino rifamycin S]
0.25 to 62 (≈ 0.264 to 65.5 µM) | 0.002 to 1.95 (≈ 0.00211 to 2.06 µM) | 0.063 to 31 | CO[C@H]1/C=C/O[C@@]2(C)Oc3c(C)c(O)c4c(c3C2=O)C(=O)C(N2CCOCC2)=C(NC(=O)/C(C)=C\C=C\[C@H](C)[C@H](O)[C@@H](C)[C@@H](O)[C@@H](C)[C@H](OC(=O)NCC#Cc2cnc3ccccc3c2)[C@@H]1C)C4=O [Example 45, 25-O-Desacetyl-(carbonyl-3-quinolin-3-yl-prop-2-ynylamine) 3-morpholino rifamycin S]
0.25 to 62 (≈ 0.258 to 64 µM) | 0.002 to 1.95 (≈ 0.00206 to 2.01 µM) | 0.063 to 31 | COc1ccccc1-c1cc(CNC(=O)O[C@H]2[C@H](C)[C@H](O)[C@H](C)[C@@H](O)[C@@H](C)/C=C/C=C(/C)C(=O)NC3=C(N4CCOCC4)C(=O)c4c(c(O)c(C)c5c4C(=O)[C@@](C)(O/C=C/[C@H](OC)[C@H]2C)O5)C3=O)on1 [Example 46, 25-O-Desacetyl-(carbonyl-C-[3-(2-methoxy-phenyl)-isoxazol-5-yl]-methylamino) 3-morpholino rifamycin S]
0.25 to 62 (≈ 0.266 to 66 µM) | 0.002 to 1.95 (≈ 0.00213 to 2.07 µM) | 0.063 to 31 | CO[C@H]1/C=C/O[C@@]2(C)Oc3c(C)c(O)c4c(c3C2=O)C(=O)C(N2CCOCC2)=C(NC(=O)/C(C)=C\C=C\[C@H](C)[C@H](O)[C@@H](C)[C@@H](O)[C@@H](C)[C@H](OC(=O)NCc2cc(-c3ccccn3)no2)[C@@H]1C)C4=O [Example 47, 25-O-Desacetyl-(carbonyl-C-(3-Pyridin-2-yl-isoxazol-5-yl)-methylamino) 3-morpholino rifamycin S]
0.25 to 62 (≈ 0.276 to 68.5 µM) | 0.002 to 1.95 (≈ 0.00221 to 2.15 µM) | 0.063 to 31 | CO[C@H]1/C=C/O[C@@]2(C)Oc3c(C)c(O)c4c(c3C2=O)C(=O)C(N2CCOCC2)=C(NC(=O)/C(C)=C\C=C\[C@H](C)[C@H](O)[C@@H](C)[C@@H](O)[C@@H](C)[C@H](OC(=O)NCc2cc(C(C)=O)no2)[C@@H]1C)C4=O [Example 48]
0.25 to 62 (≈ 0.213 to 52.9 µM) | 0.002 to 1.95 (≈ 0.00171 to 1.66 µM) | 0.063 to 31 | CO[C@H]1/C=C/O[C@@]2(C)Oc3c(C)c(O)c4c(c3C2=O)C(=O)C(N2CCOCC2)=C(NC(=O)/C(C)=C\C=C\[C@H](C)[C@H](O)[C@@H](C)[C@@H](O)[C@@H](C)[C@H](OC(=O)N2CCN(CCNc3ccc(C(=NO)Nc5ccccc5)cc3C(F)(F)F)CC2)[C@@H]1C)C4=O [Example 49, 25-O-Desacetyl-(carbonyl-N-hydroxy-N′-phenyl-4-(2-piperazin-1-yl-ethylamino)-3-trifluoromethyl-benzamidine) 3-morpholino rifamycin S]
0.25 to 62 (≈ 0.621 to 154 µM) | 0.002 to 1.95 (≈ 0.00497 to 4.85 µM) | 0.063 to 31 | Cc1cc2cc(NC(=O)c3ccc(N4CCNCC4)c(C(F)(F)F)c3)ccc2[nH]1 [Example 50, N-(2-Methyl-1H-indol-5-yl)-4-piperazin-1-yl-3-trifluoromethyl-benzamide]
